Reference: US10526345B2, “Compounds as GPR119 agonists” (Mankind Pharma Ltd., priority 2016, dated 2020)

biological target: T1, hGPR119 (Homo sapiens, UniProt Q8TDV5); test: In vitro cyclic AMP assay (Cisbio dynamic 2 HTRF kit) in CHO-hGPR119 cells; format: cell-based; details: 1 h, cAMP, compound at 1 μM, 60 min, read-out: Induction (% induction at 1 μM)
T1 construct: expressed in transfected cells; host or cells: CHO
T1 sequence (Q8TDV5 1-335): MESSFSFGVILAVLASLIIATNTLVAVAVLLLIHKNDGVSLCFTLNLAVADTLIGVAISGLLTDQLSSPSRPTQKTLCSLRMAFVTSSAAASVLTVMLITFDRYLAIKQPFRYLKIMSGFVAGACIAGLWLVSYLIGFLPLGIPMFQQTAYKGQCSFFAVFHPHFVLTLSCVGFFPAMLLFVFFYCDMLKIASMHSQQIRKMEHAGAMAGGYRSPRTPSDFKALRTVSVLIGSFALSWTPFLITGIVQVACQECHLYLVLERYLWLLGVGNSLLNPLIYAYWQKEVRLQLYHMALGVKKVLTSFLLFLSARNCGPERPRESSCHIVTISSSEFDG
Description: cAMP measurements were done using Cisbio dynamic 2 HTRF kit according to the manufacturer's protocol. Briefly, CHO-hGPR119 cells were plated at a cell density of 5000 cells/well/5 μl into a white small volume 384 well plate. The final concentrations of IBMX and DMSO used were 1 mM and 0.5% respectively. Cells were treated with various concentrations of the test compound for 60 min at room temperature. Cells were lysed by buffer containing Anti-cAMP antibody and d2-cAMP reagents and incubated for 1 hour at room temperature. HTRF was measured at 337 nm excitation and emission wavelengths of 665 nm and 620 nm on a microplate reader (Flurostar, BMG Labtech). Graphpad prism software was utilized for EC50 determinations.

Compound	activation at 1 µM
CC(C)c1noc(N2CCC(C(Oc3nc4ccc(-c5ccc(S(C)(=O)=O)cc5)nc4s3)C3CC3)CC2)n1 (stereo not drawn) [Compound 1040, 5-(4-(cyclopropyl((5-(4-(methylsulfonyl)phenyl)thiazolo[5,4-b]pyridin-2-yl)oxy)methyl)piperidin-1-yl)-3-isopropyl-1,2,4-oxadiazole]	48%
CC(C)c1noc(C2CCN(c3nc4ccc(Nc5ccc(S(C)(=O)=O)c(F)c5)nc4s3)CC2)n1 [Compound 1025, N-(3-fluoro-4-(methylsulfonyl)phenyl)-2-(4-(3-isopropyl-1,2,4-oxadiazol-5-yl)piperidin-1-yl)thiazolo[5,4-b]pyridin-5-amine]	12%
COCCS(=O)(=O)c1ccc(-c2ccc3nc(OC(C)C4CCN(c5nc(C(C)C)no5)CC4)sc3n2)cc1 (stereo not drawn) [Compound 1067, 3-isopropyl-5-(4-(1-((5-(4-((2-methoxyethyl)sulfonyl)phenyl)thiazolo[5,4-b]pyridin-2-yl)oxy)ethyl)piperidin-1-yl)-1,2,4-oxadiazole]	36%
CC(C)c1noc(N2CCC([C@H](C)Oc3nc4ccc(-c5ccc(S(C)(=O)=O)cc5)nc4s3)CC2)n1 [Compound 1031, (S)-3-isopropyl-5-(4-(1-((5-(4-(methylsulfonyl)phenyl)thiazolo[5,4-b]pyridin-2-yl)oxy)ethyl)piperidin-1-yl)-1,2,4-oxadiazole]	76%
CC(C)c1noc(N2CCC(C(C)Oc3nc4ccc(-c5ccc(S(C)(=O)=O)cc5)nc4s3)CC2)n1 (stereo not drawn) [Compound 1020, 3-isopropyl-5-(4-(1-((5-(4-(methylsulfonyl)phenyl)thiazolo[5,4-b]pyridin-2-yl)oxy)ethyl)piperidin-1-yl)-1,2,4-oxadiazole]	68%
CCCc1cnc(N2CCC([C@@H](C)Oc3nc4ccc(-c5ccc(S(C)(=O)=O)cc5)nc4s3)CC2)nc1 [Compound 1090, (R)-5-(4-(methylsulfonyl)phenyl)-2-(1-(1-(5-propylpyrimidin-2-yl)piperidin-4-yl)ethoxy)thiazolo[5,4-b]pyridine]	54%
CC(C)c1nc(N2CCC(C(C)Oc3nc4ccc(-c5ccc(S(C)(=O)=O)cc5)nc4s3)CC2)no1 (stereo not drawn) [Compound 1058, 5-isopropyl-3-(4-(1-((5-(4-(methylsulfonyl)phenyl)thiazolo[5,4-b]pyridin-2-yl)oxy)ethyl)piperidin-1-yl)-1,2,4-oxadiazole]	48%
CC(C)OC(=O)Oc1nc2ccc(-c3ccc(S(C)(=O)=O)cc3)nc2s1 [Compound 1019, isopropyl (5-(4-(methylsulfonyl)phenyl)thiazolo[5,4-b]pyridin-2-yl)carbonate]	0%
CC(C)c1noc(N2CCC(C(C)Oc3nc4ccc(-c5ccc(C#N)cc5)nc4s3)CC2)n1 (stereo not drawn) [Compound 1065, 4-(2-(1-(1-(3-isopropyl-1,2,4-oxadiazol-5-yl)piperidin-4-yl)ethoxy)thiazolo[5,4-b]pyridin-5-yl)benzonitrile]	60%
CC(C)c1noc(C2CCN(c3nc4ccc(-c5ccc(C(=O)N6CCOCC6)cc5)nc4s3)CC2)n1 [Compound 1029, (4-(2-(4-(3-isopropyl-1,2,4-oxadiazol-5-yl)piperidin-1-yl)thiazolo[5,4-b]pyridin-5-yl)phenyl)(morpholino)methanone]	47%
CC(C)c1noc(N2CCC(C(C)Oc3nc4ccc(-c5ccc(C(=O)NC6CC6)cc5)nc4s3)CC2)n1 (stereo not drawn) [Compound 1049, N-cyclopropyl-4-(2-(1-(1-(3-isopropyl-1,2,4-oxadiazol-5-yl)piperidin-4-yl)ethoxy)thiazolo[5,4-b]pyridin-5-yl)benzamide]	14%
CC(C)c1noc(N2CCC([C@H](C)Oc3nc4ccc(-c5ccncc5)nc4s3)CC2)n1 [Compound 1092, (S)-3-isopropyl-5-(4-(1-((5-(pyridin-4-yl)thiazolo[5,4-b]pyridin-2-yl)oxy)ethyl)piperidin-1-yl)-1,2,4-oxadiazole]	9%
CC(C=C1CCN(c2nc(C(C)C)no2)CC1)Oc1nc2ccc(-c3ccc(S(C)(=O)=O)cc3)nc2s1 (stereo not drawn) [Compound 1044, 3-isopropyl-5-(4-(2-((5-(4-(methylsulfonyl)phenyl)thiazolo[5,4-b]pyridin-2-yl)oxy)propylidene)piperidin-1-yl)-1,2,4-oxadiazole]	3%
COCCNC(=O)c1ccc(-c2ccc3nc(OC(C)C4CCN(c5nc(C(C)C)no5)CC4)sc3n2)cc1 (stereo not drawn) [Compound 1050, 4-(2-(1-(1-(3-isopropyl-1,2,4-oxadiazol-5-yl)piperidin-4-yl)ethoxy)thiaozlo[5,4-b]pyridin-5-yl)-N-(2-methoxyethyl)benzamide]	16%
CC(C)c1noc(N2CCC(C(C)Oc3nc4ccc(-c5ccc(C(=O)N(C)C6CC6)cc5)nc4s3)CC2)n1 (stereo not drawn) [Compound 1052, N-cyclopropyl-4-(2-(1-(1-(3-isopropyl-1,2,4-oxadiazol-5-yl)piperidin-4-yl)ethoxy)thiazolo[5,4-b]pyridin-5-yl)-N-methylbenzamide]	13%

More lines, now with the values ahead:

activation at 1 µM	Compound
62%	CC(C)c1noc(N2CCC(C(C)Oc3nc4cnc(-c5ccc(S(C)(=O)=O)nc5)nc4s3)CC2)n1 (stereo not drawn) [Compound 1162, 2-(1-(1-(3-isopropyl-1,2,4-oxadiazol-5-yl)piperidin-4-yl)ethoxy)-5-(6-(methylsulfonyl)pyridin-3-yl)thiazolo[5,4-d]pyrimidine]
65%	CC(C)c1noc(N2CCC(C(C)Oc3nc4ncc(-c5ccc(S(C)(=O)=O)cc5)nc4s3)CC2)n1 (stereo not drawn) [Compound 1108, 3-isopropyl-5-(4-(1-((6-(4-(methylsulfonyl)phenyl)thiazolo[4,5-b]pyrazin-2-yl)oxy)ethyl)piperidin-1-yl)-1,2,4-oxadiazole]
47%	C=C(C)c1cnc(N2CCC(C(C)Oc3nc4ccc(-c5ccc(S(C)(=O)=O)cc5)nc4s3)CC2)nc1 (stereo not drawn) [Compound 1118, 5-(4-(methylsulfonyl)phenyl)-2-(1-(1-(5-(prop-1-en-2-yl)pyrimidin-2-yl)piperidin-4-yl)ethoxy)thiazolo[5,4-b]pyridine]
72%	CC(C)c1noc(N2CCC(C(C)Oc3nc4ccc(-c5ccc(S(=O)(=O)C6CC6)nc5)nc4s3)CC2)n1 (stereo in doubt) [Compound 1164, 2-((S)-1-(1-(3-isopropyl-1,2,4-oxadiazol-5-yl)piperidin-4-yl)ethoxy)-5-(6-(cyclopropylsulfonyl)pyridin-3-yl)thiazolo[5,4-b]pyridine]
69%	CC(C)c1noc(N2CCC(C(C)Oc3nc4ccc(-c5ccc(S(C)(=O)=O)cn5)nc4s3)CC2)n1 (stereo not drawn) [Compound 1161, 2-(1-(1-(3-isopropyl-1,2,4-oxadiazol-5-yl)piperidin-4-yl)ethoxy)-5-(5-(methylsulfonyl)pyridin-2-yl)thiazolo[5,4-b]pyridine]
82%	CC(C)c1noc(N2CCC([C@H](C)Oc3nc4ccc(-c5ccnc(F)c5)nc4s3)CC2)n1 [Compound 1093, (S)-5-(4-(1-((5-(2-fluoropyridin-4-yl)thiazolo[5,4-b]pyridin-2-yl)oxy)ethyl)piperidin-1-yl)-3-isopropyl-1,2,4-oxadiazole]
42%	CC(C)c1noc(N2CCC(C(C)Oc3nc4ccc(-c5cc[nH]c(=O)c5)nc4s3)CC2)n1 (stereo not drawn) [Compound 1126, 4-(2-(1-(1-(3-isopropyl-1,2,4-oxadiazol-5-yl)piperidin-4-yl)ethoxy)thiazolo[5,4-b]pyridin-5-yl)pyridin-2(1H)-one]
84%	CC(C)c1noc(N2CCC([C@H](C)Oc3nc4ccc(-c5ccc(S(=O)(=O)C6CC6)cc5)nc4s3)CC2)n1 [Compound 1095, (S)-5-(4-(1-((5-(4-(cyclopropylsulfonyl)phenyl)thiazolo[5,4-b]pyridin-2-yl)oxy)ethyl)piperidin-1-yl)-3-isopropyl-1,2,4-oxadiazole]
55%	CC(C)c1noc(N2CCC([C@H](C)Oc3nc4ccc(-c5cnc(S(C)(=O)=O)nc5)nc4s3)CC2)n1 [Compound 1133, 2-((S)-1-(1-(3-isopropyl-1,2,4-oxadiazol-5-yl)piperidin-4-yl)ethoxy)-5-(2-(methylsulfonyl)pyrimidin-5-yl)thiazolo[5,4-b]pyridine]
65%	C[C@H](Oc1nc2ccc(-c3ccc(S(C)(=O)=O)nc3)nc2s1)C1CCN(c2nc(C(F)(F)F)no2)CC1 (stereo in doubt) [Compound 1145, 2-(1-(1-(3-(trifluoromethyl)-1,2,4-oxadiazol-5-yl)piperidin-4-yl)ethoxy)-5-(6-(methylsulfonyl)pyridin-3-yl)thiazolo[5,4-b]pyridine]
34%	CC(C)c1nnc(N2CCC(C(C)Oc3nc4ccc(-c5ccc(S(C)(=O)=O)cc5)nc4s3)CC2)o1 (stereo not drawn) [Compound 1097, 2-isopropyl-5-(4-(1-((5-(4-(methylsulfonyl)phenyl)thiazolo[5,4-b]pyridin-2-yl)oxy)ethyl)piperidin-1-yl)-1,3,4-oxadiazole]
69%	CC(C)c1noc(N2CCC(C(C)Oc3nc4ccc(-c5ccc(N6CCNC6=O)nc5)nc4s3)CC2)n1 (stereo not drawn) [Compound 1144, 1-(5-(2-(1-(1-(3-isopropyl-1,2,4-oxadiazol-5-yl)piperidin-4-yl)ethoxy)thiazolo[5,4-b]pyridin-5-yl)pyridin-2-yl)imidazolidin-2-one]

same assay, conditions: cAMP

EC50	Compound
50 to 100 nM	CC(C)c1noc(N2CCC([C@H](C)Oc3nc4ccc(-c5ccc(S(C)(=O)=O)cc5)nc4s3)CC2)n1 [Compound 1031, (S)-3-isopropyl-5-(4-(1-((5-(4-(methylsulfonyl)phenyl)thiazolo[5,4-b]pyridin-2-yl)oxy)ethyl)piperidin-1-yl)-1,2,4-oxadiazole]
100 to 500 nM	CC(C)c1noc(N2CCC(C(C)Oc3nc4ccc(-c5ccc(S(C)(=O)=O)cc5)nc4s3)CC2)n1 (stereo not drawn) [Compound 1020, 3-isopropyl-5-(4-(1-((5-(4-(methylsulfonyl)phenyl)thiazolo[5,4-b]pyridin-2-yl)oxy)ethyl)piperidin-1-yl)-1,2,4-oxadiazole]
< 25 nM	CC(C)c1noc(N2CCC([C@H](C)Oc3nc4ccc(-c5ccnc(F)c5)nc4s3)CC2)n1 [Compound 1093, (S)-5-(4-(1-((5-(2-fluoropyridin-4-yl)thiazolo[5,4-b]pyridin-2-yl)oxy)ethyl)piperidin-1-yl)-3-isopropyl-1,2,4-oxadiazole]
